US20250214991A1 (Oncopia Therapeutics, Inc. d/b/a/ SK Life Science Labs, priority 2022, published 2025)

Assays:
IKZF1 = IKZF1 (Homo sapiens (Human), UniProt Q13422+Q96SW2); assay: In vitro IKZF1 HiBit Assay (HEK293T Flp-in-HiBiT-IKZF1 stable cell line); assay type: cell-based; details: HEK293T Flp-in-HiBiT-IKZF1 stable cell line, 6 hrs incubation; for DC50: read-out: IKZF1 HiBit DC50; for Dmax: HEK-293T, read-out: IKZF1 HiBit Dmax (%)
Procedure, shortened: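 Degradation was measured as loss of luminescence from the HiBiT-IKZF1 tag after 6 h compound treatment, with 0.1% final DMSO, in stable HEK293T Flp-in cells. Values were normalized to DMSO, giving the 50% degradation concentration and the maximal degradation range.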

CRBN/DDB1 = CRBN/DDB1 (Homo sapiens (Human), UniProt Q96SW2); assay: IC50 measurements for binding to CRBN/DDB1 (HTRF); details: His tagged CRBN+DDB, Cy5-labeled Thalidomide probe, one hour
Procedure, shortened: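 Serially diluted compounds compete with a Cy5-labeled thalidomide tracer (60 nM) for His-tagged CRBN-DDB1 (2 nM), detected via anti-6His Tb cryptate (0.4 nM); buffer HEPES pH 7.5 with TCEP, Brij-35, NaCl, BSA. One-hour room-temperature incubation, HTRF signal read, IC50 by four-parameter curve.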

IKZF2 [1] = molecular target: T1, IKZF2 (Homo sapiens (Human), UniProt Q96SW2+Q9UKS7); assay: In vitro IKZF2 FACS Assay in Jurkat cells; assay type: cell-based; details: 24 hrs; for DC50: half maximal degradation concentration; for Dmax: maximal degradation percentage
Protocol: In vitro IKZF2 FACS Assay
DC50, A: <1 nM; B: 1-10 nM; C: 10-100 nM; D: 100-1000 nM; E: >1000 nM. Dmax, A: >80%; B: 60-80%; C: 40-60%; D: 20-40%; E: <20%.

IKZF2 [2] = molecular target: T1, IKZF2; assay: In vitro IKZF2 HiBit Assay (HEK293T Flp-in-HiBiT cells); assay type: cell-based; details: HEK293T Flp-in-HiBiT cells, 6 hrs incubation; for DC50: read-out: IKZF2 HiBit DC50; for Dmax: HEK-293T, read-out: IKZF2 HiBit Dmax (%)
Procedure, shortened: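 Remaining tagged Helios was read as lytic HiBiT/LgBiT luminescence normalized to DMSO, yielding binned DC50 and Dmax values. Treatment ran 6 h, with compounds at 11 three-fold doses diluted from 1 mM and 0.1% final DMSO. The cells were HEK293T Flp-in with CRISPR knock-in of HiBiT at the IKZF2 N-terminus.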

CRBN/DDB1, sequence (Q96SW2 whole entry, species assumed): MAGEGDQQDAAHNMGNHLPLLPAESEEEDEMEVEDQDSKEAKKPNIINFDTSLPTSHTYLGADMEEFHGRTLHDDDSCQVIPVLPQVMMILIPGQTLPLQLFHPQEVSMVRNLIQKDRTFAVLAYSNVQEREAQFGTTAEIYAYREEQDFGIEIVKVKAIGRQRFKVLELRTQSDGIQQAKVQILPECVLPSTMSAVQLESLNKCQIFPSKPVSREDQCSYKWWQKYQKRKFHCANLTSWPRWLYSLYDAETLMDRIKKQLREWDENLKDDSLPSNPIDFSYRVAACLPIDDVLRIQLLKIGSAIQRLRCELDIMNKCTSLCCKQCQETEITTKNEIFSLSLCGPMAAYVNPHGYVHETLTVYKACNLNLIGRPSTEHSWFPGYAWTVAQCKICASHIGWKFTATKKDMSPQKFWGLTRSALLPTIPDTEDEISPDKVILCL
CRBN/DDB1, sequence (Q16531 whole entry partner, species assumed): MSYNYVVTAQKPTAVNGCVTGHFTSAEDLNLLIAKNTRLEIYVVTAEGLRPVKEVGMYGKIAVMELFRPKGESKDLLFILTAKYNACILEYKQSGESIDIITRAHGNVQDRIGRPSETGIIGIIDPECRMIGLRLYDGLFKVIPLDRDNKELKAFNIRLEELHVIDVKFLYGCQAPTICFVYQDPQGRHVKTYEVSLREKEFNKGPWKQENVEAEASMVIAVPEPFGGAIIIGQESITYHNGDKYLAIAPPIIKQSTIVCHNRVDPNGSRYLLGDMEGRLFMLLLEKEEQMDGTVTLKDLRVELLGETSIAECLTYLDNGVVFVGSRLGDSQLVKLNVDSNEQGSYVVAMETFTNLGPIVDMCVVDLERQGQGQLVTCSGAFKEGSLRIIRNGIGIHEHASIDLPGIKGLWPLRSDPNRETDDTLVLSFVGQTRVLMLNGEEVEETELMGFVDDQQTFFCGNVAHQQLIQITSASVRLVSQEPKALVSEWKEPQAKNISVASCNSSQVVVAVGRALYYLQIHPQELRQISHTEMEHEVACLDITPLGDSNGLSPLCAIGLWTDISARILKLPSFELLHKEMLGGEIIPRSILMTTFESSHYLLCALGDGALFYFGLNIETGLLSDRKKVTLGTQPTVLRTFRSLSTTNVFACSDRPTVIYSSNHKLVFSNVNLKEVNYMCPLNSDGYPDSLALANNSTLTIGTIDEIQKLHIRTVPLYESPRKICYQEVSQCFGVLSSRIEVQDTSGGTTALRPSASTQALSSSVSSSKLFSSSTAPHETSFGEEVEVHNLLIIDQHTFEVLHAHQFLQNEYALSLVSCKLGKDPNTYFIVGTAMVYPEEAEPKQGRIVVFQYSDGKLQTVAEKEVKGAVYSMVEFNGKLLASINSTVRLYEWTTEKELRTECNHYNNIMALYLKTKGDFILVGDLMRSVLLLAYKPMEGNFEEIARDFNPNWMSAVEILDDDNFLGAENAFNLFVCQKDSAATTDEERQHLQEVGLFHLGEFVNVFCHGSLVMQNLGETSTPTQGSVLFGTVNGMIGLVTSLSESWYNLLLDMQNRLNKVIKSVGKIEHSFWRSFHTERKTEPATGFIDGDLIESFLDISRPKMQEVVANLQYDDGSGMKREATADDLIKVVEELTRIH
T1 sequence (Q9UKS7 whole entry): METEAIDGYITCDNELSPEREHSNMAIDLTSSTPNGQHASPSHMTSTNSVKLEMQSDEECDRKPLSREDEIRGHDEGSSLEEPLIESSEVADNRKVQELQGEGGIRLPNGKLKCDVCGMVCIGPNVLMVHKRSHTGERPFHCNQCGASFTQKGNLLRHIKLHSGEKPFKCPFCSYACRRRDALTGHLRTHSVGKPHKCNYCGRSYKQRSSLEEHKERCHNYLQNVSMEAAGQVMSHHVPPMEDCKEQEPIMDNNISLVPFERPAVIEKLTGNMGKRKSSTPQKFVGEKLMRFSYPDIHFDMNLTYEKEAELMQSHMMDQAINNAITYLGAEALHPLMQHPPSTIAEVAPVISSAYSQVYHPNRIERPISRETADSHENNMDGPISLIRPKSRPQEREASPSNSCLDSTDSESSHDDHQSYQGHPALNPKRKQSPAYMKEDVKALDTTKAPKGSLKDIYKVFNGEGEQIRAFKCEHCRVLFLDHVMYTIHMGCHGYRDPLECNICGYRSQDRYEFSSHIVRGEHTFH
T1 sequence (Q96SW2 whole entry): as the sequence (Q96SW2 whole entry, species assumed) above
T1 sequence (Q16531 2-1140 partner): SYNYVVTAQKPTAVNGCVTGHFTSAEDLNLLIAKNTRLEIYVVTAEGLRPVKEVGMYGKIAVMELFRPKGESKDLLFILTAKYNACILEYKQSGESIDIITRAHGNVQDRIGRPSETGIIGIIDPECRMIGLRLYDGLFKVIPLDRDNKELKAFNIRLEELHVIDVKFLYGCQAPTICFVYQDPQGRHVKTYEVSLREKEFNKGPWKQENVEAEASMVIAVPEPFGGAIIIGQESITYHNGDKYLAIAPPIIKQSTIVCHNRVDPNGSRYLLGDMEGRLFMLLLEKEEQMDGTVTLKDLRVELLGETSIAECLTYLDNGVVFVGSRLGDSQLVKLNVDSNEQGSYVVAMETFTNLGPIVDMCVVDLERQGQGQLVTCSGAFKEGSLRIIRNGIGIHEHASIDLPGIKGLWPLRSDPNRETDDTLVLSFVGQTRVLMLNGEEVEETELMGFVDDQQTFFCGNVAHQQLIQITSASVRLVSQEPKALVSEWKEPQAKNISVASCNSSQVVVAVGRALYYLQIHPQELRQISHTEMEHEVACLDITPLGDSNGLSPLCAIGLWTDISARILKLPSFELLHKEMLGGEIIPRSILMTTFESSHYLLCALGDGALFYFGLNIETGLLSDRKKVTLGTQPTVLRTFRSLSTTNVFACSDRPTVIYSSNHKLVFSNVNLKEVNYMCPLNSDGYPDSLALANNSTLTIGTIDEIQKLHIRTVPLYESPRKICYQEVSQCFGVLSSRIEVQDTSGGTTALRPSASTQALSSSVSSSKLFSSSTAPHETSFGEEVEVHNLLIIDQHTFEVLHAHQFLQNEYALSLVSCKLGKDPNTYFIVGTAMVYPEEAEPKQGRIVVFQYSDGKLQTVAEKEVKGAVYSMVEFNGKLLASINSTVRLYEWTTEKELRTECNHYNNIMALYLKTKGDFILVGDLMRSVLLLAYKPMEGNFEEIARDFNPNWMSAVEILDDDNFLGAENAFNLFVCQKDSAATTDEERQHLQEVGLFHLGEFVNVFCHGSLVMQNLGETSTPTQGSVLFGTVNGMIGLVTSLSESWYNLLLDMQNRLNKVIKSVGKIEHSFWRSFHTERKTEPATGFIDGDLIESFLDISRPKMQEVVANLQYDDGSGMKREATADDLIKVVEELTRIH
IKZF1, sequence (Q13422 whole entry): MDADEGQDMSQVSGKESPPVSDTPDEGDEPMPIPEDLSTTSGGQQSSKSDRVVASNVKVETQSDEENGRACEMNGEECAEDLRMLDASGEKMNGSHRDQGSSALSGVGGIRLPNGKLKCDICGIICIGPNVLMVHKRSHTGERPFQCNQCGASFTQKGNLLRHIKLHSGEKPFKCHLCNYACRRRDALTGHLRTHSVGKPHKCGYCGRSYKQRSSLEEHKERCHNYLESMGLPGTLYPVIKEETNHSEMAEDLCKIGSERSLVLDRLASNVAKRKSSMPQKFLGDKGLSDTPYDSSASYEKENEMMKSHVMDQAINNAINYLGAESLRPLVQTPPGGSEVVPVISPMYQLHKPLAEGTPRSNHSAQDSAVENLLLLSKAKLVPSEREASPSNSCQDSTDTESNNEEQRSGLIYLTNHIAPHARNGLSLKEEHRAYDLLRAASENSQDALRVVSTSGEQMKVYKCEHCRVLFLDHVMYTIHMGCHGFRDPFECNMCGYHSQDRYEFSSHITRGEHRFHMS
IKZF1, sequence (Q96SW2 whole entry): as the sequence (Q96SW2 whole entry, species assumed) above
IKZF1, sequence (Q16531 2-1140 partner): as the sequence (Q16531 2-1140 partner) above

| Compound | DC50 (IKZF1) | Dmax (IKZF1) | IC50 (CRBN/DDB1) | DC50 (IKZF2 [1]) | Dmax (IKZF2 [1]) | DC50 (IKZF2 [2]) | Dmax (IKZF2 [2]) |
| --- | --- | --- | --- | --- | --- | --- | --- |
| Cn1ccc2c(CN3CCCC3)c(Cl)c(-c3ccc4c(c3)CN(C3CCC(=O)NC3=O)C4=O)nc21 (centres unmarked) [Example 229, 3-(5-(5-chloro-1-methyl-4-(pyrrolidin-1-ylmethyl)-1H-pyrrolo[2,3-b]pyridin-6-yl)-1-oxoisoindolin-2-yl) piperidine-2,6-dione] | > 10000 nM | < 20% | 100 to 500 nM | 1 to 10 nM | 60 to 80% | 1 to 10 nM | 60 to 80% |
| O=C1CCC(N2Cc3cc(-c4cc(CN5CCC(F)CC5)c5cc[nH]c5n4)ccc3C2=O)C(=O)N1 (centres unmarked) [Example 116, 3-(5-(4-((4-fluoropiperidin-1-yl)methyl)-1H-pyrrolo[2,3-b]pyridin-6-yl)-1-oxoisoindolin-2-yl) piperidine-2,6-dione] | 1 to 10 nM | 20 to 40% | 100 to 500 nM | 1 to 10 nM | > 80% | < 1 nM | > 80% |
| CC1CCN(Cc2cc(-c3ccc4c(c3)CN(C3CCC(=O)NC3=O)C4=O)n3cncc3c2)C1 (centres unmarked) [Example 6, 3-(5-(7-((3-methylpyrrolidin-1-yl)methyl)imidazo[1,5-a]pyridin-5-yl)-1-oxoisoindolin-2-yl) piperidine-2,6-dione] | > 10000 nM | < 20% | 100 to 500 nM | 10 to 100 nM | 60 to 80% | 10 to 100 nM | 60 to 80% |
| Cn1ccc2c(CN3CCCC3)cc(-c3ccc4c(c3)CN(C3CCC(=O)NC3=O)C4=O)nc21 (centres unmarked) [Example 55, 3-(5-(1-methyl-4-(pyrrolidin-1-ylmethyl)-1H-pyrrolo[2,3-b]pyridin-6-yl)-1-oxoisoindolin-2-yl) piperidine-2,6-dione] | > 10000 nM | 20 to 40% | 100 to 500 nM | < 1 nM | > 80% | < 1 nM | > 80% |
| O=C1CCC(N2Cc3cc(-c4cc(CN5CCCC5)c5ccn(C6COC6)c5n4)ccc3C2=O)C(=O)N1 (centres unmarked) [Example 129, 3-(5-(1-(oxetan-3-yl)-4-(pyrrolidin-1-ylmethyl)-1H-pyrrolo[2,3-b]pyridin-6-yl)-1-oxoisoindolin-2-yl) piperidine-2,6-dione] | 10 to 100 nM | 20 to 40% | 100 to 500 nM | 1 to 10 nM | > 80% | < 1 nM | > 80% |
| Nc1n[nH]c2c(CN3CCC(O)CC3)cc(-c3ccc4c(c3)CN(C3CCC(=O)NC3=O)C4=O)nc12 (centres unmarked) [Example 205, 3-(5-(3-amino-7-((4-hydroxypiperidin-1-yl)methyl)-1H-pyrazolo[4,3-b]pyridin-5-yl)-1-oxoisoindolin-2-yl) piperidine-2,6-dione] | 1000 to 10000 nM | 20 to 40% | 500 to 1000 nM | 100 to 1000 nM | 60 to 80% | 10 to 100 nM | 60 to 80% |
| Nc1n[nH]c2c(CN3CCC4(CC3)COC4)cc(-c3ccc4c(c3)CN(C3CCC(=O)NC3=O)C4=O)nc12 (centres unmarked) [Example 216, 3-(5-(7-((2-oxa-7-azaspiro[3.5]nonan-7-yl)methyl)-3-amino-1H-pyrazolo[4,3-b]pyridin-5-yl)-1-oxoisoindolin-2-yl) piperidine-2,6-dione] | 100 to 1000 nM | 20 to 40% | 1000 to 5000 nM | 100 to 1000 nM | 60 to 80% | 10 to 100 nM | 60 to 80% |
| COC1CCN(Cc2cc(-c3ccc4c(c3)CN(C3CCC(=O)NC3=O)C4=O)nc3c2ccn3C2COC2)CC1 (centres unmarked) [Example 189, 3-(5-(4-((4-methoxypiperidin-1-yl)methyl)-1-(oxetan-3-yl)-1H-pyrrolo[2,3-b]pyridin-6-yl)-1-oxoisoindolin-2-yl) piperidine-2,6-dione] | 10 to 100 nM | 20 to 40% | 100 to 500 nM | 1 to 10 nM | > 80% | 1 to 10 nM | > 80% |
| O=C1CCC(N2Cc3c(ccc(-c4cc(CN5CCCC5)c5ccn(C6CS(=O)(=O)C6)c5n4)c3Cl)C2=O)C(=O)N1 (centres unmarked) [Example 230, 3-(4-chloro-5-(1-(1,1-dioxidothietan-3-yl)-4-(pyrrolidin-1-ylmethyl)-1H-pyrrolo[2,3-b]pyridin-6-yl)-1-oxoisoindolin-2-yl) piperidine-2,6-dione] | > 10000 nM | < 20% | 100 to 500 nM | 1 to 10 nM | > 80% | 1 to 10 nM | 60 to 80% |
| O=C1CCC(N2Cc3cc(-c4cc(CN5CCC6(CC5)COC6)cc5cncn45)ccc3C2=O)C(=O)N1 (centres unmarked) [Example 10, 3-(5-(7-((2-oxa-7-azaspiro[3.5]nonan-7-yl)methyl)imidazo[1,5-a]pyridin-5-yl)-1-oxoisoindolin-2-yl) piperidine-2,6-dione] | > 10000 nM | < 20% | 500 to 1000 nM | 1 to 10 nM | 40 to 60% | 1000 to 10000 nM | 40 to 60% |
| O=C1CCC(N2Cc3cc(-c4nc(CN5CCCC5)c5ccn(C6COC6)c5n4)ccc3C2=O)C(=O)N1 (centres unmarked) [Example 218, 3-(5-(7-(oxetan-3-yl)-4-(pyrrolidin-1-ylmethyl)-7H-pyrrolo[2,3-d]pyrimidin-2-yl)-1-oxoisoindolin-2-yl) piperidine-2,6-dione] | 100 to 1000 nM | 20 to 40% | 500 to 1000 nM | 10 to 100 nM | 60 to 80% | 1 to 10 nM | 60 to 80% |
| O=C1CCC(N2Cc3cc(-c4cc(CN5CC(F)C5)c5cc[nH]c5n4)ccc3C2=O)C(=O)N1 (centres unmarked) [Example 117, 3-(5-(4-((3-fluoroazetidin-1-yl)methyl)-1H-pyrrolo[2,3-b]pyridin-6-yl)-1-oxoisoindolin-2-yl) piperidine-2,6-dione] | > 10000 nM | < 20% | 100 to 500 nM | 1 to 10 nM | > 80% | 1 to 10 nM | > 80% |
| CN(C)c1ccnc2c(CN3CCCC3)cc(-c3ccc4c(c3)CN(C3CCC(=O)NC3=O)C4=O)nc12 (centres unmarked) [Example 237, 3-(5-(8-(dimethylamino)-4-(pyrrolidin-1-ylmethyl)-1,5-naphthyridin-2-yl)-1-oxoisoindolin-2-yl) piperidine-2,6-dione] | 1 to 10 nM | 20 to 40% | 1000 to 5000 nM | 10 to 100 nM | 40 to 60% | 10 to 100 nM | 60 to 80% |
| O=C1CCC(N2Cc3cc(-c4cc(CN5CCCC5)c5ccn(C6CCC6)c5n4)ccc3C2=O)C(=O)N1 (centres unmarked) [Example 128, 3-(5-(1-cyclobutyl-4-(pyrrolidin-1-ylmethyl)-1H-pyrrolo[2,3-b]pyridin-6-yl)-1-oxoisoindolin-2-yl) piperidine-2,6-dione] | 10 to 100 nM | 20 to 40% | 100 to 500 nM | 1 to 10 nM | > 80% | < 1 nM | > 80% |
| CC(C)Nc1n[nH]c2c(CN3CCCC3)cc(-c3ccc4c(c3)CN(C3CCC(=O)NC3=O)C4=O)nc12 (centres unmarked) [Example 193, 3-(5-(3-(isopropylamino)-7-(pyrrolidin-1-ylmethyl)-1H-pyrazolo[4,3-b]pyridin-5-yl)-1-oxoisoindolin-2-yl) piperidine-2,6-dione] | 10 to 100 nM | 20 to 40% | 1000 to 5000 nM | 1 to 10 nM | 40 to 60% | 1 to 10 nM | > 80% |
| O=C1CCC(N2Cc3c(ccc(-c4cc(CN5CCCC5)c5ccn(C6COC6)c5n4)c3Cl)C2=O)C(=O)N1 (centres unmarked) [Example 228, 3-(4-chloro-5-(1-(oxetan-3-yl)-4-(pyrrolidin-1-ylmethyl)-1H-pyrrolo[2,3-b]pyridin-6-yl)-1-oxoisoindolin-2-yl) piperidine-2,6-dione] | > 10000 nM | < 20% | 100 to 500 nM | 10 to 100 nM | 60 to 80% | 1 to 10 nM | 60 to 80% |
| O=C1CCC(N2Cc3cc(-c4cc(CN5CC(F)C5)c5ccn(C6COC6)c5n4)ccc3C2=O)C(=O)N1 (centres unmarked) [Example 161, 3-(5-(4-((3-fluoroazetidin-1-yl)methyl)-1-(oxetan-3-yl)-1H-pyrrolo[2,3-b]pyridin-6-yl)-1-oxoisoindolin-2-yl) piperidine-2,6-dione] | > 10000 nM | < 20% | 100 to 500 nM | 10 to 100 nM | 60 to 80% | 1 to 10 nM | 60 to 80% |
